Data on seven substances can be found in PMC4036671, “Switching and emergence of CTL epitopes in HIV-1 infection” (Retrovirology, 2014).

In assay [1] the test system is expanded PBMCs from 46 HIV-1 patients. Nature of the assay: IFN-γ ELISpot assay using expanded PBMCs (screening of HLA-A*24:02-restricted epitopes). Type of assay: cell-based, human. Particulars: for response rate: 46 HLA-A*24:02-positive HIV-1 patients, peptide 10^-5 M, overnight 16 to 18 h, positive >50 SFU per 10^6 cells; for peptide-specific response among patients with Nef135Y: eight patients with Nef135Y in plasma HIV RNA. On the procedure:
(§1) The gamma interferon enzyme-linked immunospot (IFN-γ ELISpot) assay was performed using patients’ PBMCs as previously described with some modifications. In brief, 96-well plates (Millipore) were coated with anti-gamma-interferon (IFN-γ) MAb 1-D1k (Mabtech) overnight at 4°C. Peptides were added directly to the wells at a final concentration of 10^-5 M. 5 ~ 10 × 10^4 cells were added to each well with a final volume of 100 μl of R10. For negative controls, PBMCs were incubated with R10 alone without peptides. After incubation at 37°C under 5% CO2 overnight (16 to 18 h), the plates were washed six times with phosphate-buffered saline containing 0.01% tween-20 (PBST). Biotinylated anti-IFN-γ MAb 7-B6-1 (Mabtech) was added, and was incubated for 2 hours at 37°C under 5% CO2. After washing with PBST, streptavidin-alkaline phosphatase conjugate (Mabtech) was added and the plates were kept at room temperature for 45 min. After washing with PBST, IFN-γ-producing cells were detected as dark spots after 10- to 20-min color reaction with 5-bromo-4-chloro-3-indolylphosphate and nitroblue tetrazolium by using AP Conjugate Substrate Kit (Bio-Rad). Spots were counted by KS ELISPOT compact (Carl Zeiss) and expressed as spot-forming units (SFU) per 10^6 PBMCs after subtracting the SFU of the negative control. Values with >50 SFU, >3 × mean SFU of negative control and > mean SFU of negative control + 3 SD per 10^6 input cells were considered as a positive response.
(§2) Since more cells were required for the immune response screening (Figure 1B) and functional avidity assays (Figures 4B and 6C), PBMCs were stimulated with anti-human CD3 antibody and the T cells were expanded for 2 to 3 weeks in R10/50 (BD Pharmingen). Culture media was changed to R10 two days prior to the assay date. For ex vivo IFN-γ ELISpot assay (Figures 5B and 6B), PBMCs were cultured for 6 hours in R10 media.

The subject of assay [2] is Nef126-10-specific CTL clone I30-1. Nature of the assay: Epitope recognition by CTL clone, peptide-pulsed 293FT-A24DRm-CY0 cells, IFN-γ ELISA. Type of assay: cell-based, human. Conditions: 293FT-A24DRm-CY0 cells pulsed with serially diluted peptide (3^2 to 3^-6 μM), co-culture 18 to 24 h, three independent experiments. On the procedure: (§3) The cells were washed twice with R10, then cultured with 1 × 10^6 autologous PBMCs and 4 × 10^6 irradiated (3300 rad) allogeneic PBMCs in R10. After 4 days, IL-2 was added to 50 U/ml and the cells were cultured for 2–3 weeks in R10/50. Peptide-specific CD8^+ T cells were enriched by MACS separation (Miltenyi) using tetramers. The sorted cells were cloned by limiting dilution to 3 or 10 cells/well in 96-well round-bottom tissue culture plates, and cultured with 10^5 irradiated allogeneic PBMCs in R10/50 containing 5 μg/ml PHA-L.
(§4) CTL-recognition of the epitopes was assessed by serially diluted peptides. On day 0, 293FT-A24DRm-CY0 cells were seeded onto 96-well Flat-bottom transparent plate (BD Falcon) so that the cultures become confluent on day 2. On day 2, each peptide was pulsed with concentrations from 3^2 to 3^-6 μM to the wells and incubated at 37°C under 5% CO2 for 1 h. Then CTLs (5,000 ~ 10,000 cells) were added and co-cultured at 37°C under 5% CO2 for 18 to 24 h. After the incubation, supernatants were harvested, and IFN-γ concentrations were quantified by Human IFN-γ ELISA Set (BD Bioscience). In each experiment, the IFN-γ value of samples was normalized to that of the highest wild type peptide concentration (9 μM). For example, each IFN-γ value of I30-1 CTL clone was divided by the value of the well pulsed with 9 μM Nef126-10(wt) peptide. Each assay was performed in duplicate and three independent experiments were conducted.

Assay [3] has as its system Nef134-10-specific CTL clone H27-9. The assay is described as above. Type of assay: cell-based, human. Conditions: 293FT-A24DRm-CY0 cells pulsed with serially diluted peptide (3^2 to 3^-6 μM), co-culture 18 to 24 h, three independent experiments. Here is the method:
as §3, §4

Assay [4] deals with expanded PBMCs. Nature of the assay: Functional avidity assay (IFN-γ ELISpot, limiting dilution of peptide). Type of assay: cell-based, human. Conditions: nine individuals harboring 133T/135F, peptide 10^-5 to 10^-12 M, compared to Nef126-10(8T10F), Mann-Whitney U-test p < 0.05. Here is the method: Basically, the assay was performed using the same procedure with IFN-γ ELISpot assay as described above. PBMCs were cultured for 2 to 3 weeks in R10/50 after anti-human CD3 antibody (BD Pharmingen) stimulation, and culture media were changed from R10/50 to R10 two days before use. PBMCs were incubated with peptides at concentrations from 10^-5 to 10^-12 M, and SFU was calculated. The functional avidity to peptide dilutions was determined as a 50% of sigmoidal dose (SD50) SFU.
All data visualization and statistical analyses were performed using GraphPad Prism (GraphPad Software, La Jolla, CA). Student’s t-test and Mann–Whitney U-test were used to compare the antigen presentation and functional avidity between two groups, respectively. Spearman rank correlation was used to calculate the correlation between peptide-specific response and pVL. Dose at 50% response in sigmoidal dose–response curves (SD50) was calculated by drawing sigmoidal dose–response curves. Time to mutational escape, defined as the time elapsed between estimated date of HIV-1 infection and the first appearance of a full or partial amino acid change consistent with the specific escape mutation of interest, was calculated using Kaplan-Meier (survival) methods.

The target in the next assay is HLA-A*24:02 (Homo sapiens, UniProt P04439, D101N/D140Y/D185E/E176V/E190D/F33S/G103R/G107R/I119L/I121M/I306V/K335N/L105A/L180Q/L300P/N151K/N90K/Q86E/Q94H/R106L/R138H/R89G/T104I/T345S/V100E/W191G/Y123F). Nature of the assay: Peptide-HLA binding assay (T2-A24 stabilization assay). Conditions: T2-A24 cells, 10^-4 to 10^-9 M peptide, normalized MFI (to 10^-4 M Nef134-8), three independent experiments. Here is the method:
Peptide binding to HLA-A*24:02 was assessed by using a T2-A24 stabilization assay as previously described. Briefly, after incubation for 16 hours at 26°C under 5% CO2, 2 × 10^5 T2-A24 cells were incubated with 10^-4 to 10^-9 M peptides for 1 h at 4°C. After keeping at 37°C under 5% CO2 for 3 hours, the cells were stained with biotinylated anti-human HLA-A9 monoclonal antibody (One Lambda), and streptavidin-APC conjugates (BD Pharmingen). The mean fluorescence intensity (MFI) was measured by FACSCalibur (Becton Dickinson). In each experiment, MFI of samples was normalized by the MFI of 10^-4 M control peptide, Nef134-8([…]). Three independent experiments were performed.

Another assay relates to PBMCs. Nature of the assay: Ex vivo IFN-γ ELISpot assay. Particulars: for correlation between magnitude of peptide-specific response and pVL: 24 IMSUT cohort patients harboring 133I/135F or 133T/135F, ex vivo IFN-γ ELISpot with frozen PBMCs, Spearman's rank correlation; for patients with peptide-specific response, plasma viruses 133T/135F: patients with 133T/135F viruses (n = 10). In kind it is cell-based, human. Here is the method:
as §1, §2

For assay [5], the system named is expanded PBMCs. Nature of the assay: Longitudinal IFN-γ ELISpot assay with serially diluted peptides in one individual. Type of assay: cell-based, human. Particulars: one patient; for peptide-specific IFN-γ ELISpot response, latter time point: 2003/3/20, plasma virus 133T/135F. On the procedure:
as §1, with “In brief, 96-well plates (Millipore) were coated with anti-gamma-interferon (IFN-γ) MAb 1-D1k (Mabtech) overnight at 4°C.” left out, “Biotinylated anti-IFN-γ MAb 7-B6-1 (Mabtech) was added, and was incubated for 2 hours at 37°C under 5% CO2.” left out
as §2

In assay [1], KYKLKHIVW [Gag28-9, reference compound] registered a response rate of 40.0%. In addition, in assay [2], the “IFN-γ production by CTL clone I30-1” value is given as “Neither clone showed specificity”. Besides, in assay [3], the “IFN-γ production by CTL clone H27-9” value is “Neither clone showed specificity”.
With Nef126-10(8I10F) (NYTPGPGIRF), the “functional avidity (SD50) of peptide-specific CTL responses” value in the assay on expanded PBMCs [4] was “significantly higher avidities”. For the same substance, the “binding to HLA-A*24:02” value with HLA-A*24:02 was “dramatically improved its binding”. Besides, the “correlation between magnitude of peptide-specific response and pVL” value in the assay on PBMCs is “inversely correlated with pVL”. In the assay on PBMCs (ex vivo IFN-γ ELISpot, PBMCs), the “patients with peptide-specific response, plasma viruses 133T/135F” value is 7 of 10. Moreover, the “peptide-specific IFN-γ ELISpot response, latter time point” value in the assay on expanded PBMCs [5] was “robust responses”. Besides, the “IFN-γ production by CTL clone I30-1” value in assay [2] is “strong responses at very low peptide concentration”.
As for VPLDKDFRKY [reference compound], the “binding to HLA-A*24:02” value at HLA-A*24:02 is on record as “might not bind to HLA-A*24:02”.
“Nef126-10(8T10F): Nef126-10 peptide with threonine at 8th position (I133T) and F at position 10 (NYTPGPGTRF)”: in the assay with HLA-A*24:02, the “binding to HLA-A*24:02” value is on record as “did not significantly affect epitope-HLA binding”. In addition, the “correlation between magnitude of peptide-specific response and pVL” value with PBMCs is “not”. In addition, the “patients with peptide-specific response, plasma viruses 133I/135F” value with PBMCs (ex vivo IFN-γ ELISpot, PBMCs, patients with 133I/135F viruses (n = 4)) is given as 0 of 4. In the assay on PBMCs (ex vivo IFN-γ ELISpot, PBMCs), the “patients with peptide-specific response, plasma viruses 133T/135F” value was “Nine out of 10”. Also, the “peptide-specific IFN-γ ELISpot response, latter time point” value in the assay with expanded PBMCs [5] was “robust responses”. Moreover, in assay [2], the “IFN-γ production by CTL clone I30-1” value was “strong responses at very low peptide concentration”.
For the substance “Nef126-10(wt): wild-type Nef126-10 peptide with Y at the C-terminus (NYTPGPGIRY)”, the “binding to HLA-A*24:02” value with HLA-A*24:02 is listed as “lowers the affinity”. Also, in the assay on expanded PBMCs [5], the “peptide-specific IFN-γ ELISpot response, latter time point” value is listed as “detected only at high peptide concentrations”. In addition, the “IFN-γ production by CTL clone I30-1” value in assay [2] is on record as “only at high concentrations”.
Consider “Nef134-10: published HLA-A*24:02-restricted HIV-1 nef CTL epitope peptide, 10 amino acids from Nef134 (HXB2 numbering) (RYPLTFGWCY; UniProt P04601 134-143, looked up, fragment)”, for which, in assay [1] (35 patients harboring Nef135F), the “number of responders among patients harboring Nef135F” value was determined as 28 and the “response rate among patients harboring Nef135F” value is 80.0%. In assay [1], the response rate is listed as 80.4% and the “peptide-specific response among patients with Nef135Y” value was “all of them”. Moreover, the “peptide-specific IFN-γ ELISpot response, latter time point” value in the assay with expanded PBMCs [5] is given as “decreased but remained detectable”.
Turning to “Nef126-10: published HLA-A*24:02-restricted HIV-1 nef CTL epitope peptide, 10 amino acids from Nef126 (HXB2 numbering) (NYTPGPGVRY; UniProt P04601 126-135, looked up, fragment)”, the “number of responders among patients harboring Nef135F” value in assay [1] (35 patients harboring Nef135F) is recorded as 23. For the same substance, in assay [1], the response rate was 50.0% and the “peptide-specific response among patients with Nef135Y” value is on record as “none of the eight patients”. For the same substance, the “peptide-specific IFN-γ ELISpot response, earlier time point” value in the assay on expanded PBMCs [5] (2000/9/4, plasma virus wild type around Nef126-10/Nef134-10) is “no Nef126-10-specific responses were observed”.
